{
  "source": "patent US8778961B2",
  "about": "“O-methylated rapamycin derivatives for alleviation and inhibition of lymphoproliferative disorders” (The Trustees of the University of Pennsylvania, priority 2000, dated 2014)",
  "key": {"[1]": {"tested_on": "PTLD-like B cell lines 20A, A1, A2D6, and LCL", "assay": "cell cycle progression by propidium iodide flow cytometry", "assay_type": "cell-based, human", "conditions": "48 hours", "procedure": "The cell lines to be examined were cultured with several concentrations of SDZ RAD (0 to 10 nanomolar) for 24-48 hours. The cells were washed with DPBS and stain solution (pH 7.2) containing 3% PEG 6000, 50 micrograms per milliliter DNA fluorochrome propidium iodide (PI; Calbiochem, San Diego, Calif.), annexin V-FITC as described (Douglas et al., 1998, Cytometry 32:57-65) 0.1% (v/v) TRITON™ X (Sigma, St. Louis, Mo.), 4 millimolar citrate buffer pH 7.8, and 360 units per milliliter RNase A (Worthington Biochemicals, Freehold, N.J.) for 30 minutes at 37 C. Next, salt solution pH 7.2 (3% w/v PEG 6000, PI 50 micrograms per milliliter, 0.1% v/v TRITON™ X, and 0.4 molar NaCl) was added, and the cells were incubated at 4° C. in the dark for 1 hour before flow cytometry analysis was performed, as described (Douglas et al., 1998, Cytometry 32:57-65; Kawamata et al., 1998, Blood 91:561-569; Pepper et al., 1998, Leuk. Res. 22:439-444).\nRapamycin and, presumably, O-alkylated rapamycin derivatives such as SDZ RAD, block cell cycle progression at the early stage in normal T cells (Terada et al., 1993, J. Cell Physiol. 154:7-15; Flanagan et al., 1993, Ann. N.Y. Acad. Sci. 696:31-37). […] The effect was drug dose and cell-line type dependent. […] Percentages of cells in the later phases of the cell cycle (G2-M and S) were diminished proportionally. A1 and, to a lesser degree, A2D6 cell line were particularly sensitive to SDZ RAD. Four EBV^+ B-cell lines were cultured for 48 hours with 0-10 nanomolar SDZ RAD, labeled with propidium iodine, and analyzed by flow cytometry."}, "15A tumors": {"tested_on": "15A tumors", "assay": "inhibition of tumor establishment in SCID mice", "assay_type": "in vivo", "procedure": "(§1) Establishment and passaging of the xenotransplanted tumors was performed as described (Douglas et al., 1998, Cytometry 32:57-65; Kawamata et al., 1998, Blood 91:561-569; Pepper et al., 1998, Leuk. Res. 22:439-444). To deplete macrophages and NK cells and to enhance tumor engraftment, SCID mice were injected intraperitoneally with 30-45 milligrams per kilogram of etoposide (Bedford Laboratories, Bedford, Ohio) 4 days prior to implantation of the human EBV^+ B-cell lines (Visonneau et al., 1998, Am. J. Path. 152:1299-1311). Ten million cells of each line employed (see results) were inoculated into mice either intraperitoneally or subcutaneously in 200 microliters of Dulbecco's Phosphate Buffered Saline (DPBS; BioWhittaker, Walkersville, Md.). Ascites or palpable subcutaneous tumors developed 3-5 weeks after cell injection.\n(§2) Tumor treatment and growth inhibition experiments were performed using fragments of the established subcutaneous tumors (Pasqualucci et al., 1995, Blood 85:2139-2146, Visonneau et al., 1998, Am. J. Path. 152:1299-1311). For this purpose, mice were anesthetized with KETALAR™ (ketamine, Parke-Davis, Morris Plains, N.J.) by intraperitoneal injection of 100 milligrams per kilogram. Next, the primary tumor was aseptically removed and freed from necrotic, fatty and connective tissue and divided into small pieces of roughly equal size and 3-4 pieces per mouse were injected subcutaneously. Treatment of established tumors with SDZ RAD was started when tumors reached 5 millimeters diameter. In growth inhibition experiments, the treatment was initiated 3 days prior to the tumor implantation. Tumor volume in all experiments was determined from the equation: volume=0.4ab^2, where a and b designate respectively long and short diameter of the tumor. The transplanted mice were monitored for tumor growth for a period of up to 2 months. Five milligrams per kilogram of SDZ RAD was administered once a day by gavage as described (Schuurman et al., 1997, Transplantation 64:32-5; Schuler et al. 1997, Transplantation 64:36-42).\n(§3) Mice were sacrificed by exposure to FORANE™ (isoflurane, Ohmeda, Liberty Place, N.J.) on day 29 in the drug toxicity study, on day 40-55 in the tumor growth inhibition study or when tumors achieved approximately 2 centimeter diameter, or when ulceration of the skin, signs of severe respiratory distress, weakness, or lethargy appeared. Complete autopsy was performed on all mice at the end of the study regardless of their appearance. Tumor and internal organs (spleen, liver, lung, heart, kidney, small and large intestines, femoral bone for bone marrow) were fixed in 10% (v/v) formalin, embedded in paraffin, cut into […] sections, transferred to glass slides, and stained with hematoxylin and eosin. Representative tumor fragments were stained immunohistochemically by standard streptavidin-biotin complex technique using commercially available reagents (Research Genetics, Huntsville, Ala.), antibodies: anti-CD20 (L-26) and LMP-1 (both from DAKO, Carpinteria, Calif.) and Ki67 (mib1; Immunotech, Westbrook, Me.). EBV-encoded RNA (EBER-1), and detected using commercially available reagents.\n(§4) Because SDZ RAD, when used as an immunosuppressive agent, is administered chronically to transplant patients, its main therapeutic impact on PTLDs may be to inhibit their development rather than to alleviate the clinically symptomatic cases. To test if SDZ RAD can inhibit establishment of PTLD-like lymphomas, daily treatment with 5 milligrams per kilogram body weight of the drug was initiated 3 days prior to the tumor implantation. […] On day 25, the treated tumors measured in average 38 cubic millimeters, the untreated approximately 1940 cubic millimeters. On day 45, the median volume of the treated tumor was 480 cubic millimeters. In 20A tumors, 6 out of 11 tumors were not detectable on day 25; the median volume of the remaining 5 was 20 cubic millimeters. The average untreated tumor measured 210 cubic millimeters on that day. […]"}, "20A tumors": {"tested_on": "20A tumors", "assay": "inhibition of tumor establishment in SCID mice", "assay_type": "in vivo", "procedure": "as §1, §2, §3, §4"}, "A1 tumors": {"tested_on": "A1 tumors", "assay": "inhibition of tumor establishment in SCID mice", "assay_type": "in vivo", "procedure": "as §1, §2, §3, §4"}, "[2]": {"conditions": "day 25, treatment from 3 days prior to implantation"}},
  "note": "Values joined by “and” are separate entries in the source; they are usually repeats but may differ in a detail not shown here. Equal entries are not always repeated.",
  "data": [
    {"compound": "CO[C@H]1C[C@@H]2CC[C@@H](C)[C@@](O)(O2)C(=O)C(=O)N2CCCC[C@H]2C(=O)O[C@H]([C@H](C)C[C@@H]2CC[C@@H](OCCO)[C@H](OC)C2)CC(=O)[C@H](C)/C=C(\\C)[C@@H](O)[C@@H](OC)C(=O)[C@H](C)C[C@H](C)/C=C/C=C/C=C/1C", "note": "[SDZ RAD, 40-O-(2-hydroxy)ethyl-rapamycin]", "values": [
      {"measurement": "cell cycle progression at the early, G0/G1 phase", "setting": "[1]; all 4 cell lines, 0-10 nanomolar", "result": "markedly inhibited"},
      {"measurement": "increase in the percentage of cells in G0/G1", "setting": "[1]; highest dose 10 nanomolar", "result": "10-70%"},
      {"measurement": "increase in the percentage of cells in G0/G1", "setting": "[1]; low doses 1-2 nanomolar", "result": "5-25"},
      {"measurement": "effect on tumor growth and establishment", "setting": "15A tumors; 5 milligrams per kilogram body weight daily, initiated 3 days prior to tumor implantation", "result": "profoundly delayed the tumor growth, but was unable to inhibit the tumor establishment"},
      {"measurement": "average treated tumor volume", "setting": "15A tumors; [2]", "result": 38, "unit": "cubic millimeters"},
      {"measurement": "median volume of the treated tumor", "setting": "15A tumors; day 45, treatment from 3 days prior to implantation", "result": 480, "unit": "cubic millimeters"},
      {"measurement": "treated mice with no signs of tumor (establishment completely inhibited)", "setting": "20A tumors; 11 treated mice, microscopic evaluation revealed no malignant cells", "result": "Five and 5/11"},
      {"measurement": "median volume of the remaining 5 tumors", "setting": "20A tumors; day 25", "result": 20, "unit": "cubic millimeters"},
      {"measurement": "tumors not detectable", "setting": "20A tumors; [2]", "result": "6 out of 11"},
      {"measurement": "volume of treated tumors (none exceeded)", "setting": "20A tumors; day 45", "result": "≤ 150", "unit": "cubic millimeters"},
      {"measurement": "tumor detection in the 8 treated mice", "setting": "A1 tumors; day 29, treatment from 3 days prior to implantation", "result": "no tumor could be detected"},
      {"measurement": "mice with no evidence of tumor (establishment completely inhibited)", "setting": "A1 tumors; day 53, 8 treated mice", "result": "5 and 5/8"},
      {"measurement": "mice with small, histologically confirmed lymphomas", "setting": "A1 tumors; day 53, 8 treated mice", "result": 3},
      {"measurement": "volume of the small lymphomas", "setting": "A1 tumors; day 53, the 3 mice with lymphoma", "result": "< 5", "unit": "cubic millimeters"}
    ]}
  ]
}
